{"source": "PubChem BioAssay (NCI)", "note": "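Values below derive from 48-hour exposures of cells grown in 96-well plates, with endpoints linearly interpolated between the two concentrations bracketing the appropriate inhibition level. The concentration for full growth arrest is given as TGI.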", "data": [{"system": "HT29 colon", "assay": "DTP human tumour cell line panel, 48 h", "units": {"TGI": "µM"}, "values": [{"smiles": "CN(C)/C=N/S(=O)(=O)c1nn2c(C=O)c(-c3ccc(Cl)cc3)nc2s1", "TGI": 0.552}, {"smiles": "COc1ccc(C2=Nn3c(nnc(Cc4ccc(Cl)cc4)c3=O)SC2)cc1", "TGI": "> 100"}, {"smiles": "COC1(OC)CC(CO)(CNc2nc(N)nc(Cl)c2/C=N\\O)C1", "TGI": "> 100"}, {"smiles": "CCOC(=O)C(Cc1cn(S(=O)(=O)c2ccccc2)c2ccccc12)(NC(C)=O)C(=O)OCC", "TGI": "> 100"}, {"smiles": "Cc1ccc2c(c1)C1(C)OC(C=CC1=O)O2", "note": "(stereo unspecified)", "TGI": 0.684}]}, {"system": "M14 melanoma", "assay": "DTP human tumour cell line panel, 48 h", "units": {"TGI": "µM"}, "values": [{"smiles": "O=c1c2cc(S(=O)(=O)O)ccc2nc(COc2ccc(Oc3ccc(Cl)cc3Cl)cc2)n1-c1ccc(Cl)cc1Oc1c(Cl)cccc1Cl", "TGI": 55.8}, {"smiles": "C=C(CC[C@@H](C)[C@H]1CC[C@@]2(C)C3=C(CC[C@]12C)[C@@]1(C)CC[C@H](O)[C@@H](C)C1CC3)C(C)C", "note": "(stereo partly specified)", "TGI": 2.36}, {"smiles": "CC(=O)OCCOCn1cnc2c(Cl)nc(Cl)nc21", "TGI": 37.1}, {"smiles": "O=C1O/C(=C(/Cl)c2cccc3ccccc23)c2ccccc21", "TGI": "> 100"}, {"smiles": "CC(=O)OC1(C)C=CC(=O)C=C1", "TGI": "> 100"}, {"smiles": "COc1cc(OC)c2c(=O)c(OC)c(-c3ccc4c(c3)OCO4)oc2c1", "TGI": "> 100"}, {"smiles": "CC1(C)CC(=O)C(/C=N/c2nc(-c3ccccc3)cs2)=C(O)C1", "TGI": "> 100"}, {"smiles": "NC(N)=N/N=C/c1c(-c2cccc([N+](=O)[O-])c2)nc2n1CCS2", "TGI": 60}, {"smiles": "Cn1c(=O)c2[nH]c(CCCCC(=O)O)nc2n(C)c1=O", "TGI": "> 100"}, {"smiles": "N#Cc1nc(C2=C(Cl)c3ccccc3OC2)[nH]c1C#N", "TGI": 34.2}, {"smiles": "O=C1C=CC=C/C1=C1\\N=C(c2ccccc2OCC(=O)c2ccc(Br)cc2)SS1", "TGI": "> 100"}, {"smiles": "Cc1ccc(-c2c3nc(c(-c4ccc(C)cc4)c4ccc([nH]4)c(-c4ccc(OCC5COC(C)(C)O5)cc4)c4nc(c(-c5ccc(C)cc5)c5ccc2[nH]5)C=C4)C=C3)cc1", "note": "(stereo unspecified)", "TGI": "> 31.6"}, {"smiles": "COc1ccc(CCN2CCN(CCc3ccc(OC)cc3)CC2)cc1", "TGI": "> 100"}, {"smiles": "CCn1c2ccccc2n2c(=O)c3c(c(C#N)c12)CCCC3", "TGI": "> 100"}, {"smiles": "c1ccc(CSP234N5CCN2CCN3CCN4CC5)c(CSP234N5CCN2CCN3CCN4CC5)c1", "TGI": "> 100"}, {"smiles": "O=c1[nH]c(Nc2nc3ccccc3[nH]2)nc2c1CCC2", "TGI": "> 100"}, {"smiles": "Cc1nn(C(=O)Cc2ccccc2)c2c1C(c1ccc(N(C)C)cc1)SC(N)=N2", "note": "(stereo unspecified)", "TGI": "> 100"}, {"smiles": "CCOP(=O)(O)C1C(CO)OC(n2ccc(=O)[nH]c2=O)C1O", "note": "(stereo unspecified)", "TGI": "> 100"}, {"smiles": "NC(=S)Nc1ccc(S(=O)(=O)Nc2ccc(S(N)(=O)=O)cc2)cc1", "TGI": "> 100"}, {"smiles": "O=C1NCCCNCCCNCCCNC(=O)c2cccc1n2", "TGI": "> 100"}, {"smiles": "CSC1=N/C(=C\\c2ccccc2)C(=O)N1CN1CCCCC1", "TGI": "> 100"}, {"smiles": "CN(C)/C=N/S(=O)(=O)c1nn2c(C=O)c(-c3ccc(Cl)cc3)nc2s1", "TGI": 2.17}, {"smiles": "COc1ccc(C2=Nn3c(nnc(Cc4ccc(Cl)cc4)c3=O)SC2)cc1", "TGI": 91}, {"smiles": "CCOC(=O)C(Cc1cn(S(=O)(=O)c2ccccc2)c2ccccc12)(NC(C)=O)C(=O)OCC", "TGI": "> 100"}, {"smiles": "Cc1ccc2c(c1)C1(C)OC(C=CC1=O)O2", "note": "(stereo unspecified)", "TGI": 1.13}]}, {"system": "U251 CNS", "assay": "DTP human tumour cell line panel, 48 h", "units": {"TGI": "µM"}, "values": [{"smiles": "O=c1c2cc(S(=O)(=O)O)ccc2nc(COc2ccc(Oc3ccc(Cl)cc3Cl)cc2)n1-c1ccc(Cl)cc1Oc1c(Cl)cccc1Cl", "TGI": 40.5}, {"smiles": "C=C(CC[C@@H](C)[C@H]1CC[C@@]2(C)C3=C(CC[C@]12C)[C@@]1(C)CC[C@H](O)[C@@H](C)C1CC3)C(C)C", "note": "(stereo partly specified)", "TGI": 3.11}, {"smiles": "CC(=O)OCCOCn1cnc2c(Cl)nc(Cl)nc21", "TGI": 29.2}, {"smiles": "O=C1O/C(=C(/Cl)c2cccc3ccccc23)c2ccccc21", "TGI": "> 100"}, {"smiles": "COc1ccc(N2C(=O)c3cc(C)cnc3S2(=O)=O)cc1", "TGI": "> 100"}, {"smiles": "CC(=O)OC1(C)C=CC(=O)C=C1", "TGI": 28.7}, {"smiles": "COc1cc(OC)c2c(=O)c(OC)c(-c3ccc4c(c3)OCO4)oc2c1", "TGI": 30.3}, {"smiles": "CC1(C)CC(=O)C(/C=N/c2nc(-c3ccccc3)cs2)=C(O)C1", "TGI": "> 100"}, {"smiles": "NC(N)=N/N=C/c1c(-c2cccc([N+](=O)[O-])c2)nc2n1CCS2", "TGI": 41.7}, {"smiles": "Cn1c(=O)c2[nH]c(CCCCC(=O)O)nc2n(C)c1=O", "TGI": "> 100"}, {"smiles": "N#Cc1nc(C2=C(Cl)c3ccccc3OC2)[nH]c1C#N", "TGI": 75.9}, {"smiles": "O=C1C=CC=C/C1=C1\\N=C(c2ccccc2OCC(=O)c2ccc(Br)cc2)SS1", "TGI": "> 100"}, {"smiles": "Cc1ccc(-c2c3nc(c(-c4ccc(C)cc4)c4ccc([nH]4)c(-c4ccc(OCC5COC(C)(C)O5)cc4)c4nc(c(-c5ccc(C)cc5)c5ccc2[nH]5)C=C4)C=C3)cc1", "note": "(stereo unspecified)", "TGI": "> 31.6"}, {"smiles": "N#Cc1c(-c2ccccc2)cc(Nc2cccc(C(F)(F)F)c2)n2c1nc1ccccc12", "TGI": 10.3}, {"smiles": "COc1ccc(CCN2CCN(CCc3ccc(OC)cc3)CC2)cc1", "TGI": "> 100"}, {"smiles": "CCn1c2ccccc2n2c(=O)c3c(c(C#N)c12)CCCC3", "TGI": "> 100"}, {"smiles": "c1ccc(CSP234N5CCN2CCN3CCN4CC5)c(CSP234N5CCN2CCN3CCN4CC5)c1", "TGI": "> 100"}, {"smiles": "O=c1[nH]c(Nc2nc3ccccc3[nH]2)nc2c1CCC2", "TGI": "> 100"}, {"smiles": "NC(=S)Nc1ccc(S(=O)(=O)Nc2ccc(S(N)(=O)=O)cc2)cc1", "TGI": "> 100"}, {"smiles": "O=C1NCCCNCCCNCCCNC(=O)c2cccc1n2", "TGI": "> 100"}, {"smiles": "CSC1=N/C(=C\\c2ccccc2)C(=O)N1CN1CCCCC1", "TGI": "> 100"}, {"smiles": "CN(C)/C=N/S(=O)(=O)c1nn2c(C=O)c(-c3ccc(Cl)cc3)nc2s1", "TGI": 11.7}, {"smiles": "COc1ccc(C2=Nn3c(nnc(Cc4ccc(Cl)cc4)c3=O)SC2)cc1", "TGI": "> 100"}, {"smiles": "COC1(OC)CC(CO)(CNc2nc(N)nc(Cl)c2/C=N\\O)C1", "TGI": "> 100"}, {"smiles": "CCOC(=O)C(Cc1cn(S(=O)(=O)c2ccccc2)c2ccccc12)(NC(C)=O)C(=O)OCC", "TGI": "> 100"}, {"smiles": "Cc1ccc2c(c1)C1(C)OC(C=CC1=O)O2", "note": "(stereo unspecified)", "TGI": 0.549}]}]}
